{"source": "patent US10913736B2", "about": "(UNIVERSITY OF WASHINGTON, priority 2014, dated 2021)", "key": {"T. brucei": {"system": "T. brucei", "test": "Growth inhibition assay of T. brucei cell cultures (Alamar Blue, 48 h)", "assay_type": "cell-based"}, "MetRS (T. brucei)": {"biological_target": "MetRS (T. brucei) (Trypanosoma brucei brucei, UniProt Q38C91)", "sequence (Q38C91 entry or part of it)": "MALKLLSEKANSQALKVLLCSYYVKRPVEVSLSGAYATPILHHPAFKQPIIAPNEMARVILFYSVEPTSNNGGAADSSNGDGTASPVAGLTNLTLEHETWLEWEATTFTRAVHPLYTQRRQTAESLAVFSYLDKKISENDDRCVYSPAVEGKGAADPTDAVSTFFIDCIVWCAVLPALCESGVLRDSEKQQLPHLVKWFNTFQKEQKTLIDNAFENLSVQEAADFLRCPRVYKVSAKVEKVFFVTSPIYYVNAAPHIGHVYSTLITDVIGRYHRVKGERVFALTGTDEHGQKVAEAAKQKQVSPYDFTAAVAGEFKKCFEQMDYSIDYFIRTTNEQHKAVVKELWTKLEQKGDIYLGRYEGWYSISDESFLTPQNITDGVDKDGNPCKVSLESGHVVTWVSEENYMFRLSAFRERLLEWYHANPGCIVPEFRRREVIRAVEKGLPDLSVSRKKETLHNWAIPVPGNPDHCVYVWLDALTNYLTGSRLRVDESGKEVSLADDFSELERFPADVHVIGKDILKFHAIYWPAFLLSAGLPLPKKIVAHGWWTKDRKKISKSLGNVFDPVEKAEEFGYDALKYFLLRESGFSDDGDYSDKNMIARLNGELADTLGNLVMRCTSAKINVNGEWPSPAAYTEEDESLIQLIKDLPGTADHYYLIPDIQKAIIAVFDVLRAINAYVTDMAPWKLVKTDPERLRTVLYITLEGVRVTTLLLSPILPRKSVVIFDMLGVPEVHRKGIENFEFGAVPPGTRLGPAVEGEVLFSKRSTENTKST", "test": "MetRS (T. brucei) ATP depletion assay using Kinase-Glo", "assay_type": "biochemical"}, "[1]": {"conditions": "Trypanosoma brucei; read-out: B) T. brucei EC50"}}, "note": "Several values for one entry are separate records, joined by “and”; a condition that tells them apart may be missing. Equal entries are not always repeated. Where two headings read alike, the source gives them in different places.", "data": [{"smiles": "COc1ccc(Oc2nc(O)nc(NCc3nc4ccc(F)nc4[nH]3)n2)c(Cl)c1", "note": "[Compound 1885, 4-(2-chloro-4-methoxyphenoxy)-6-[({5-fluoro-3H-imidazo[4,5-b]pyridin-2-yl}methyl)amino]-1,3,5-triazin-2-ol]", "values": [{"measurement": "EC50", "setting": "T. brucei; [1]", "value": 5.87, "unit": "µM"}, {"measurement": "IC50", "setting": "MetRS (T. brucei)", "value": 1.51, "unit": "µM"}]}, {"smiles": "O=C(Cc1cc(Cl)cc(Cl)c1)NC1CCCC(c2nc3nc(Cl)ccc3[nH]2)C1", "note": "(stereo not drawn) [Compound 1786, N-(3-(5-chloro-1H-imidazo[4,5-b]pyridin-2-yl)cyclohexyl)-2-(3,5-dichlorophenyl)acetamide]", "values": [{"measurement": "EC50", "setting": "T. brucei; [1]", "value": 5.67, "unit": "µM"}, {"measurement": "IC50", "setting": "MetRS (T. brucei)", "value": 0.31, "unit": "µM"}]}, {"smiles": "CC(C)[C@@H](Cc1nc2ccc(Cl)cc2[nH]1)NCc1cc(Cl)cc(Cl)c1", "note": "[Compound 1828, [(2R)-1-(6-chloro-1H-1,3-benzodiazol-2-yl)-3-methylbutan-2-yl][(3,5-dichlorophenyl)methyl]amine]", "values": [{"measurement": "EC50", "setting": "T. brucei; [1]", "value": 7.41, "unit": "µM"}, {"measurement": "IC50", "setting": "MetRS (T. brucei)", "value": "> 10", "unit": "µM"}]}, {"smiles": "Clc1cc(Cl)cc(CN2CCC[C@@H](c3nc4cc(Cl)ccc4[nH]3)C2)c1", "note": "[Compound 1838, (R)-5-chloro-2-(1-(3,5-dichlorobenzyl)piperidin-3-yl)-1H-benzo[d]imidazole]", "values": [{"measurement": "EC50", "setting": "T. brucei; [1]", "value": 8.57, "unit": "µM"}, {"measurement": "IC50", "setting": "MetRS (T. brucei)", "value": "> 10", "unit": "µM"}]}, {"smiles": "CNCc1cc(Cl)cc(Cl)c1O/C=C/C(=O)NCc1nc2ccccc2[nH]1", "note": "[Compound 1779, (2E)-N-(1H-1,3-benzodiazol-2-ylmethyl)-3-{2,4-dichloro-6-[(methylamino)methyl]phenoxy}prop-2-enamide]", "values": [{"measurement": "EC50", "setting": "T. brucei; [1]", "value": "> 20", "unit": "µM"}, {"measurement": "IC50", "setting": "MetRS (T. brucei)", "value": "> 10", "unit": "µM"}]}, {"smiles": "CC(C)Oc1c(Cl)cc(Cl)cc1CN[C@H]1CCCN(c2nc3nc(Cl)ccc3[nH]2)C1", "note": "[Compound 1931, (S)-1-(5-chloro-1H-imidazo[4,5-b]pyridin-2-yl)-N-(3,5-dichloro-2-isopropoxybenzyl)piperidin-3-amine]", "values": [{"measurement": "EC50", "setting": "T. brucei; [1]", "value": 1.7, "unit": "µM"}, {"measurement": "IC50", "setting": "MetRS (T. brucei)", "value": 0.305, "unit": "µM"}]}, {"smiles": "Clc1cc(Cl)cc(CNCc2nc3ccc(Br)cc3[nH]2)c1", "note": "[Compound 1853, N-(3,5-dichlorobenzyl)(6-bromo-1H-benzo[d]imidazol-2-yl)methanamine]", "values": [{"measurement": "EC50", "setting": "T. brucei; [1]", "value": "> 20", "unit": "µM"}, {"measurement": "IC50", "setting": "MetRS (T. brucei)", "value": "> 10", "unit": "µM"}]}, {"smiles": "Nc1nc(Cl)ccc1NC(=O)C1CN(C(=O)Cc2cc(Cl)cc(Cl)c2)CCN1", "note": "(stereo not drawn) [Compound 1791, N-(2-amino-6-chloropyridin-3-yl)-4-(2-(3,5-dichlorophenyl)acetyl) piperazine-2-carboxamide]", "values": [{"measurement": "EC50", "setting": "T. brucei; [1]", "value": "> 20", "unit": "µM"}, {"measurement": "IC50", "setting": "MetRS (T. brucei)", "value": 8.48, "unit": "µM"}]}, {"smiles": "COc1ccc(Oc2cccc(NCc3nc4ccccc4[nH]3)c2)c(Cl)c1", "note": "[Compound 1941, N-(1H-1,3-benzodiazol-2-ylmethyl)-3-(2-chloro-4-methoxyphenoxy)aniline]", "values": [{"measurement": "EC50", "setting": "T. brucei; [1]", "value": 3.13, "unit": "µM"}, {"measurement": "IC50", "setting": "MetRS (T. brucei)", "value": 0.273, "unit": "µM"}]}, {"smiles": "CCNc1c(Cl)cc(Cl)cc1CN[C@H]1CCCN(c2nc3nc(Cl)ccc3[nH]2)C1", "note": "[Compound 1940, (S)-1-(5-chloro-1H-imidazo[4,5-b]pyridin-2-yl)-N-(3,5-dichloro-2-(ethylamino)benzyl)piperidin-3-amine]", "values": [{"measurement": "EC50", "setting": "T. brucei; [1]", "value": 0.359, "unit": "µM"}, {"measurement": "IC50", "setting": "MetRS (T. brucei)", "value": 0.042, "unit": "µM"}]}, {"smiles": "CC(=O)N(Cc1cc(Cl)cc(Cl)c1)C1CCCC(c2nc3ccccc3[nH]2)C1", "note": "(stereo not drawn) [Compound 1816, N-(3-(1H-benzo[d]imidazol-2-yl)cyclohexyl)-N-(3,5-dichlorobenzyl) acetamide]", "values": [{"measurement": "EC50", "setting": "T. brucei; [1]", "value": 8.79, "unit": "µM"}, {"measurement": "IC50", "setting": "MetRS (T. brucei)", "value": "> 10", "unit": "µM"}]}, {"smiles": "N[C@@H](CC(=O)NCc1nc2ccccc2[nH]1)Cc1ccc(F)cc1", "note": "[Compound 1703, (3R)-3-amino-N-(1H-1,3-benzodiazol-2-ylmethyl)-4-(4-fluorophenyl)butanamide]", "values": [{"measurement": "EC50", "setting": "T. brucei; [1]", "value": "> 10", "unit": "µM"}, {"measurement": "IC50", "setting": "MetRS (T. brucei)", "value": 12.1, "unit": "µM"}]}, {"smiles": "CC(=O)N(Cc1cc(Cl)cc(Cl)c1)C1CCCC(c2nc3cc(Cl)ccc3[nH]2)C1", "note": "(stereo not drawn) [Compound 1861, N-(3-(5-chloro-1H-benzo[d]imidazol-2-yl)cyclohexyl)-N-(3,5-dichlorobenzyl)acetamide]", "values": [{"measurement": "EC50", "setting": "T. brucei; [1]", "value": 4.44, "unit": "µM"}, {"measurement": "IC50", "setting": "MetRS (T. brucei)", "value": 1.47, "unit": "µM"}]}, {"smiles": "O=C(CC(=O)Nc1ccc(Cl)cc1Cl)NCc1nc2ccccc2[nH]1", "note": "[Compound 1803, N1-((1H-benzo[d]imidazol-2-yl)methyl)-N3-(2,4-dichlorophenyl)malonamide]", "values": [{"measurement": "EC50", "setting": "T. brucei; [1]", "value": "> 20", "unit": "µM"}, {"measurement": "IC50", "setting": "MetRS (T. brucei)", "value": "> 10", "unit": "µM"}]}, {"smiles": "Clc1cc(Cl)cc(CNCCc2nc3ccc(Cl)nc3[nH]2)c1", "note": "[Compound 1780, [2-(5-chloro-3H-imidazo[4,5-b]pyridin-2-yl)-ethyl]-(3,5-dichloro-benzyl)-amine]", "values": [{"measurement": "EC50", "setting": "T. brucei; [1]", "value": 1.16, "unit": "µM"}, {"measurement": "EC50", "setting": "T. brucei; read-out: B) T. brucei EC50", "value": 1.06, "unit": "µM"}, {"measurement": "IC50", "setting": "MetRS (T. brucei)", "value": "0.067 µM and 0.036 µM"}]}, {"smiles": "Clc1cc(Cl)cc(CNCCCc2nc3ccc(Cl)cc3[nH]2)c1", "note": "[Compound 1832, [3-(6-chloro-1H-1,3-benzodiazol-2-yl)propyl][(3,5-dichlorophenyl)methyl]amine]", "values": [{"measurement": "EC50", "setting": "T. brucei; [1]", "value": 2.15, "unit": "µM"}, {"measurement": "IC50", "setting": "MetRS (T. brucei)", "value": 0.243, "unit": "µM"}]}, {"smiles": "Clc1cc(Cl)cc(NC[C@H]2CCCN(c3nc4nc(Cl)ccc4[nH]3)C2)c1", "note": "[Compound 1922, (R)-3,5-dichloro-N-((1-(5-chloro-1H-imidazo[4,5-b]pyridin-2-yl)piperidin-3-yl)methyl)aniline]", "values": [{"measurement": "EC50", "setting": "T. brucei; [1]", "value": 2.76, "unit": "µM"}, {"measurement": "IC50", "setting": "MetRS (T. brucei)", "value": 0.14, "unit": "µM"}]}, {"smiles": "Fc1ccc2nc(NCCCNc3ccc(Cl)cc3Cl)[nH]c2n1", "note": "[Compound 1956, N1-(2,4-dichlorophenyl)-N3-(5-fluoro-3H-imidazo[4,5-b]pyridin-2-yl)propane-1,3-diamine]", "values": [{"measurement": "EC50", "setting": "T. brucei; [1]", "value": 1.55, "unit": "µM"}, {"measurement": "IC50", "setting": "MetRS (T. brucei)", "value": 0.325, "unit": "µM"}]}, {"smiles": "Clc1cc(Cl)cc(CNCC2CCN2c2nc3nc(Cl)ccc3[nH]2)c1", "note": "(stereo not drawn) [Compound 1915, 1-(1-(5-chloro-1H-imidazo[4,5-b]pyridin-2-yl)azetidin-2-yl)-N-(3,5-dichlorobenzyl)methanamine]", "values": [{"measurement": "EC50", "setting": "T. brucei; [1]", "value": 3.1, "unit": "µM"}, {"measurement": "IC50", "setting": "MetRS (T. brucei)", "value": 0.17, "unit": "µM"}]}, {"smiles": "Clc1cc(Cl)c(Cl)c(CN[C@H]2CCCN(c3nc4nc(Cl)c(Br)cc4[nH]3)C2)c1", "note": "[Compound 1905, (S)-1-(6-bromo-5-chloro-1H-imidazo[4,5-b]pyridin-2-yl)-N-(2,3,5-trichlorobenzyl)piperidin-3-amine]", "values": [{"measurement": "EC50", "setting": "T. brucei; [1]", "value": "> 20", "unit": "µM"}, {"measurement": "IC50", "setting": "MetRS (T. brucei)", "value": 4.31, "unit": "µM"}]}, {"smiles": "Clc1ccc(CCNCc2nc3nc(Cl)ccc3[nH]2)c(Cl)c1", "note": "[Compound 1892, ({5-chloro-3H-imidazo[4,5-b]pyridin-2-yl}methyl)[2-(2,4-dichlorophenyl)ethyl]amine]", "values": [{"measurement": "EC50", "setting": "T. brucei; [1]", "value": 1.55, "unit": "µM"}, {"measurement": "IC50", "setting": "MetRS (T. brucei)", "value": 0.033, "unit": "µM"}]}, {"smiles": "CC(Cc1nc2cc(F)c(Cl)cc2[nH]1)NCc1cc(Cl)cc(Cl)c1", "note": "(stereo not drawn) [Compound 1824, [1-(6-chloro-5-fluoro-1H-1,3-benzodiazol-2-yl)propan-2-yl][(3,5-dichlorophenyl)methyl]amine]", "values": [{"measurement": "EC50", "setting": "T. brucei; [1]", "value": 2.24, "unit": "µM"}, {"measurement": "IC50", "setting": "MetRS (T. brucei)", "value": 0.16, "unit": "µM"}]}, {"smiles": "CC(Cc1nc2c(Cl)cc(Cl)cc2[nH]1)NCc1cc(Cl)cc(Cl)c1", "note": "(stereo not drawn) [Compound 1823, [1-(4,6-dichloro-1H-1,3-benzodiazol-2-yl)propan-2-yl][(3,5-dichlorophenyl)methyl]amine]", "values": [{"measurement": "EC50", "setting": "T. brucei; [1]", "value": 4.56, "unit": "µM"}, {"measurement": "IC50", "setting": "MetRS (T. brucei)", "value": 2.29, "unit": "µM"}]}, {"smiles": "Clc1cc(Cl)cc(CNc2cccc(-c3nc4ccc(Cl)cc4[nH]3)c2)c1", "note": "[Compound 1952, 3-(6-chloro-1H-1,3-benzodiazol-2-yl)-N-[(3,5-dichlorophenyl)methyl]aniline]", "values": [{"measurement": "EC50", "setting": "T. brucei; [1]", "value": 0.187, "unit": "µM"}, {"measurement": "EC50", "setting": "T. brucei; read-out: B) T. brucei EC50", "value": 0.367, "unit": "µM"}, {"measurement": "IC50", "setting": "MetRS (T. brucei)", "value": "2.28 µM and 1.74 µM"}]}, {"smiles": "O=C(NCc1nc2ccc(Cl)nc2[nH]1)Nc1cc(Cl)cc(Cl)c1", "note": "[Compound 1890, 1-((5-chloro-1H-imidazo[4,5-b]pyridin-2-yl)methyl)-3-(3,5-dichlorophenyl)urea]", "values": [{"measurement": "EC50", "setting": "T. brucei; [1]", "value": 6.22, "unit": "µM"}, {"measurement": "IC50", "setting": "MetRS (T. brucei)", "value": 0.078, "unit": "µM"}]}, {"smiles": "CC(Cc1nc2ccc(Br)cc2[nH]1)NCc1cc(Cl)cc(Cl)c1", "note": "(stereo not drawn) [Compound 1821, [1-(6-bromo-1H-1,3-benzodiazol-2-yl)propan-2-yl][(3,5-dichlorophenyl)methyl]amine]", "values": [{"measurement": "EC50", "setting": "T. brucei; [1]", "value": 1.67, "unit": "µM"}, {"measurement": "IC50", "setting": "MetRS (T. brucei)", "value": 0.054, "unit": "µM"}]}]}
